Experimental data as given in PMC9403987 (Frontiers in Oncology, 2022).

Tests used:
A549 = assay: Cell proliferation assay; format: cell-based, Homo sapiens; conditions: A549, lung carcinoma, 72 hours
Procedure: (§1) To quantify cell proliferation, either the nuclei of live cells were counted following staining with 4’,6-diamidino-2-phenylindole (DAPI; Sigma-Aldrich, Burlington, MA, USA), or metabolically active cells were detected using a CellTiter-Glo assay (Promega Corporation, Madison, WI, USA). Cells from a range of human and mammalian tumor cell lines (American Type Culture Collection, Manassas, VA, USA) were seeded at 4000 cells per well in 100 μL of culture medium in a 96-well plate and incubated overnight at 37°C with 5% CO2. […] In the DAPI staining method, cells were washed using 1× phosphate-buffered saline (PBS; Gibco Thermo Fisher Scientific, Waltham, MA, USA), fixed with 4% formaldehyde, permeabilized with 0.2% Triton X-100 (Sigma-Aldrich), washed again, and stained with 1 μg/mL DAPI to visualize cell nuclei. Cells were washed with 1× PBS three times, and 100 μL 1× PBS was added to each well. Plates were scanned using an IN Cell Analyzer 2200 (GE Healthcare Life Sciences, Chicago, IL, USA) and the number of cells per well was recorded. In the CellTiter-Glo assay, 60 μL of CellTiter-Glo luminescent solution was added to each well after incubation with the test compounds, and the assay plate was scanned using a Tecan Infinite M1000 PRO microplate reader (Tecan Group AG, Männedorf, Switzerland) to record luminescent signals.

HCC827 = assay: Cell proliferation assay; format: cell-based, Homo sapiens; conditions: HCC827, lung carcinoma, 72 hours
Procedure: as §1

JHH-7 = assay: Cell proliferation assay; format: cell-based, Homo sapiens; conditions: JHH-7, liver, hepatocellular carcinoma, 72 hours
Procedure: as §1

SK-HEP-1 = assay: Cell proliferation assay; format: cell-based, Homo sapiens; conditions: SK-HEP-1, liver, hepatocellular carcinoma, 72 hours
Procedure: as §1

SNU-398 = assay: Cell proliferation assay; format: cell-based, Homo sapiens; conditions: SNU-398, liver, hepatocellular carcinoma, 72 hours
Procedure: as §1

SNU-423 = assay: Cell proliferation assay; format: cell-based, Homo sapiens; conditions: SNU-423, liver, hepatocellular carcinoma, 72 hours
Procedure: as §1

SNU-739 = assay: Cell proliferation assay; format: cell-based, Homo sapiens; conditions: SNU-739, liver, hepatocellular carcinoma, 72 hours
Procedure: as §1

SW948 = assay: Cell proliferation assay; format: cell-based, Homo sapiens; conditions: SW948, colon carcinoma, 72 hours
Procedure: as §1

4T1 = assay: Cell proliferation assay; format: cell-based, Mus musculus; conditions: 4T1, breast carcinoma, 72 hours
Procedure: as §1

BNL CL.2 = assay: Cell proliferation assay; format: cell-based, Mus musculus; conditions: BNL CL.2, liver, normal, 72 hours
Procedure: as §1

Colon-26 = assay: Cell proliferation assay; format: cell-based, Mus musculus; conditions: Colon-26, colorectal carcinoma, 72 hours
Procedure: as §1

Glioma 261 = assay: Cell proliferation assay; format: cell-based, Mus musculus; conditions: Glioma 261, brain, murine glioma, 72 hours
Procedure: as §1

H22 = assay: Cell proliferation assay; format: cell-based, Mus musculus; conditions: H22, liver, hepatocellular carcinoma, 72 hours
Procedure: as §1

Hepa1-6 = assay: Cell proliferation assay; format: cell-based, Mus musculus; conditions: Hepa1-6, liver, hepatocellular carcinoma, 72 hours
Procedure: as §1

BRL-3a = assay: Cell proliferation assay; format: cell-based, Rattus norvegicus; conditions: liver, normal, 72 hours
Procedure: as §1

U87-luc tumor cells = assay: Orthotopic U87-luc glioblastoma xenograft; format: in vivo, BALB/c nude mice; conditions: for TGI (%) / Increase in median survival time (%): 42 days; for TGI (%): measured day 21, bioluminescence; for Increase in median survival time (%): versus vehicle group
Procedure: (§2) The efficacy of GLR2007 was evaluated in human GBM and breast cancer orthotopic cell-line-derived xenografts in NOD/SCID mice (Shanghai Lingchang Biotechnology Co. Ltd, Shanghai, China) and BALB/c nude mice (Shanghai Sino-British SIPPR/BK Laboratory Animal Co. Ltd, Shanghai, China), and human lung, colorectal, and liver cancer subcutaneous cell-line-derived xenografts in BALB/c nude mice (Nanjing University National Resource Center, Nanjing, China, or Beijing Anikeeper Biotech Co., Beijing, China). Mice were maintained in humidity- and temperature-controlled conditions with food and water available ad libitum.
In a GBM orthotopic xenograft study, female BALB/c nude mice were inoculated intracranially at 6–8 weeks old with 3×10^5 U87-luc tumor cells plus Matrigel (Corning Life Sciences, Tewksbury, MA, USA) in a 4:1 ratio in PBS at the right frontal lobe. Tumor growth was quantified using intraperitoneal administration of 150 mg/kg luciferin to anesthetized mice, and tumor bioluminescence was measured using an IVIS Lumina II imaging system (PerkinElmer Inc.). In one study, mice were randomized at day 6 after tumor implantation (mean bioluminescence of 2.81×10^7 photons/sec), and in the other, mice were randomized at day 14 or day 15 (mean bioluminescence of 7.49×10^6 photons/sec).
Statistical analysis of differences in mean tumor volume among groups was conducted via an independent samples t-test or one-way analysis of variance (ANOVA; two-sided Dunnett’s test). For comparison among three or more groups, a one-way ANOVA was performed. Multiple comparison procedures were applied after ANOVA when significant F-statistics (ratio of treatment variance to error variance) were obtained. Comparisons between groups were carried out using the Games test. P<0.05 was considered to be statistically significant. Survival times were analyzed using the Kaplan–Meier method, with curves constructed for each group and the log-rank (Mantel–Cox) test used to compare survival curves between groups. Body weight change was calculated based on the weight on the first day of dosing.

NCI-H1975 = assay: Subcutaneous NCI-H1975 non-small cell lung cancer xenograft; format: in vivo, BALB/c nude mice; conditions: 22 days, measured day 16
Procedure: as §2, with “libitum. For subcutaneous models, female BALB/c nude mice were inoculated at 4–8 weeks old with 3×10^6–1×10^7 tumor cells (see Table 1 for xenograft model cell types) in the right flank for tumor development. Randomization was performed when the mean tumor volume reached 118–171 mm^3.” for “libitum.”

COLO 205 = assay: Subcutaneous COLO 205 colorectal cancer xenograft; format: in vivo, BALB/c nude mice; conditions: 26 days, measured day 25
Procedure: as §2, with “libitum. For subcutaneous models, female BALB/c nude mice were inoculated at 4–8 weeks old with 3×10^6–1×10^7 tumor cells (see Table 1 for xenograft model cell types) in the right flank for tumor development. Randomization was performed when the mean tumor volume reached 118–171 mm^3.” for “libitum.”

SMILES: CCN1CCN(Cc2ccc(Nc3ncc(F)c(-c4cc(F)c5nc(C)n(C(C)C)c5c4)n3)nc2)CC1 [Abemaciclib, abemaciclib, reference compound]
- IC50 (A549; Homo sapiens): 104 nM
- IC50 (HCC827; Homo sapiens): 16 nM
- IC50 (JHH-7; Homo sapiens, JHH7): 1170 nM
- IC50 (SK-HEP-1; Homo sapiens, SK-HEP1): 6 nM
- IC50 (SNU-398; Homo sapiens): 173 nM
- IC50 (SNU-423; Homo sapiens): 48 nM
- IC50 (SNU-739; Homo sapiens): 383 nM
- IC50 (SW948; Homo sapiens): 586 nM
- IC50 (4T1; Mus musculus): 4790 nM
- IC50 (BNL CL.2; Mus musculus): 10000 nM
- IC50 (Colon-26; Mus musculus): > 10000 nM
- IC50 (Glioma 261; Mus musculus): 2520 nM
- IC50 (H22; Mus musculus): 3580 nM
- IC50 (Hepa1-6; Mus musculus): 1270 nM
- IC50 (BRL-3a; Rattus norvegicus): 10000 nM
- TGI (%) (U87-luc tumor cells; 150 mg/kg daily oral): 79.0%
- Increase in median survival time (%) (U87-luc tumor cells; 150 mg/kg daily oral): 54.4%
- TGI (%) (NCI-H1975; 25 mg/kg daily oral): 6.9%
- TGI (%) (COLO 205; 25 mg/kg daily oral): 57.7%

SMILES: CC1=Nc2c(F)cc(-c3nc(Nc4ccc(C5CCN(C)CC5)cn4)ncc3F)cc2C12CCCC2 [GLR2007]
- IC50 (A549): 66 nM
- IC50 (HCC827): 15 nM
- IC50 (JHH-7): 578 nM
- IC50 (SK-HEP-1): 36 nM
- IC50 (SNU-398): 51 nM
- IC50 (SNU-423): 19 nM
- IC50 (SNU-739): 100 nM
- IC50 (SW948): 189 nM
- IC50 (4T1): 1940 nM
- IC50 (BNL CL.2): 1940 nM
- IC50 (Colon-26): 2120 nM
- IC50 (Glioma 261): 1970 nM
- IC50 (H22): 1840 nM
- IC50 (Hepa1-6): 526 nM
- IC50 (BRL-3a): 1870 nM
- TGI (%) (U87-luc tumor cells; 12.5 mg/kg daily oral): 86.3%
- Increase in median survival time (%) (U87-luc tumor cells; 12.5 mg/kg daily oral): 50.0%
- Weight loss, GLR2007 versus abemaciclib groups (U87-luc tumor cells; orthotopic U87-luc xenograft mice treated for 42 days): comparable
- TGI (%) (NCI-H1975; 10 mg/kg daily oral): 27.6%
- TGI (%) (NCI-H1975; 25 mg/kg daily oral): 50.0%
- TGI (%) (COLO 205; 5 mg/kg daily oral): 42.6%
- TGI (%) (COLO 205; 25 mg/kg daily oral): 72.2%
